Drawing on patent US8710038B2, “Pyrazole kinase modulators and methods of use” (Exelixis, Inc., priority 2004, dated 2014), this text covers IC50 for 23 compounds.

The structures appear in SMILES notation. Where only a bound is given, the exact number is not on record here.

One experiment has as its target T1, flt-3 (Homo sapiens, UniProt P36888).
T1 construct: baculovirus expressed human Flt-3 kinase domain R571-S993
T1 sequence (P36888 571-993): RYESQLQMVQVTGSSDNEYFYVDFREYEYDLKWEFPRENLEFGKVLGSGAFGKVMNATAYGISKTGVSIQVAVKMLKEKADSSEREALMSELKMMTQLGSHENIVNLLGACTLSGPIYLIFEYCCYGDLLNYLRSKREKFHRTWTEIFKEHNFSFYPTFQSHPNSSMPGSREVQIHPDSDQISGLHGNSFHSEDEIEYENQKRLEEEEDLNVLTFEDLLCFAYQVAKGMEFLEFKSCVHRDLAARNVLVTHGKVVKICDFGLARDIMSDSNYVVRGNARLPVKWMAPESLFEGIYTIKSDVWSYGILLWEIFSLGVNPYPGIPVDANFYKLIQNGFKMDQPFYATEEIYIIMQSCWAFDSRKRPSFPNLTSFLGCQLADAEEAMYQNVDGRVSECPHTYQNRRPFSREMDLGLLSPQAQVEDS
The experiment in a line: flt-3 Luciferase-Coupled Chemiluminescent Kinase assay (LCCA). The format is biochemical. On the procedure:
In the LCCA assays, kinase activity is measured as the percent ATP consumed following the kinase reaction using luciferase-luciferin-coupled chemiluminescence. Greiner 384-well white, clear bottom, medium-binding plates are used for LCCA. Briefly, the kinase reaction is initiated by mixing compounds, ATP and kinase in a 20 uL volume. The mixture is incubated at ambient temperature for 2-4 hrs. At the end of the kinase reaction, a 20 uL luciferase-luciferin mix is added and the chemiluminescent signal is read using a Wallac Victor^2 reader. The luciferase-luciferin mix consists of 50 mM HEPES, pH 7.8, 8.5 ug/mL oxalic acid (pH 7.8), 5 (or 50) mM DTT, 0.4% Triton X-100, 0.25 mg/mL coenzyme A, 63 uM AMP, 28 ug/mL luciferin and 40,000 units of light/mL luciferase. For the LCCA assays, total ATP consumption has been standardized to 25-45% and the IC50 values correlates well with those determined by radiometric assays.
Flt-3 biochemical activity was assessed using a Luciferase-Coupled Chemiluminescent Kinase assay (LCCA) format. Kinase activity was measured as the percent ATP remaining following the kinase reaction. Remaining ATP was detected by luciferase-luciferin-coupled chemiluminescence. Specifically, the reaction was initiated by mixing test compounds, 5 μM ATP, 3 μM poly-EY and 5 nM Flt-3 (baculovirus expressed human Flt-3 kinase domain R571-S993) in a 20 uL assay buffer (20 mM Tris-HCL pH7.5, 10 mM MgCl2, 0.01% Triton X-100, 1 mM DTT, 2 mM MnCl2). The mixture is incubated at ambient temperature for 3 hours after which 20 uL luciferase-luciferin mix is added and the chemiluminescent signal read using a Wallac Victor^2 reader. The luciferase-luciferin mix consists of 50 mM HEPES, pH 7.8, 8.5 ug/mL oxalic acid (pH 7.8), 5 (or 50) mM DTT, 0.4% Triton X-100, 0.25 mg/mL coenzyme A, 63 uM AMP, 28 ug/mL luciferin and 40,000 units of light/mL luciferase.

In a further experiment the target is c-Kit (Homo sapiens, UniProt P10721). Briefly: c-Kit biochemical assay (AlphaScreen). The text has this: AlphaScreen technology is a proximity assay which utilizes the increase in fluorescent signal occurring when donor and acceptor beads are close in proximity. Biotinylated poly(Glu,Tyr) 4:1 is used as the kinase substrate, in conjunction with streptavidin-coated donor beads and anti-phosphortyrosine antibody PY100-coated acceptor beads. Upon phosphorylation, the peptide substrate can bind to both donor and acceptor beads giving rise to an increase in fluorescence. Compounds, ATP, biotinylated poly(Glu, Tyr) and kinases are mixed in a volume of 20 uL for 1 hr at ambient temperature using Greiner 384-well white clear bottom medium binding plates. Following incubation a 10 uL solution containing […] AlphaScreen beads, 75 mM Hepes, pH 7.4, 300 mM NaCl, 120 mM EDTA, 0.3% BSA and 0.03% Tween-20 is added to each well. After 2-16 hr incubation of the beads, plates are read in a Perkin Elmer AlphaQuest reader. The IC50 values correlates well with those of radiometric assays.
c-Kit biochemical activity was assessed using AlphaScreen™ (Perkin Elmer) technology, described above. Test compounds, ATP, biotinylated poly(Glu, Tyr) and c-Kit kinase were combined in a volume of 20 μL in a 384-well white, medium binding microtiter plate (Greiner). Reaction mixtures were incubated for 1 hr at ambient temperature. Reactions were quenched by addition of 10 uL of […] AlphaScreen bead suspension containing 75 mM Hepes, pH 7.4, 300 mM NaCl, 120 mM EDTA, 0.3% BSA and 0.03% Tween-20. After 16 hr incubation at ambient temperature plates were read using an AlphaQuest reader (Perkin Elmer).

c-Kit, sequence (P10721 26-976): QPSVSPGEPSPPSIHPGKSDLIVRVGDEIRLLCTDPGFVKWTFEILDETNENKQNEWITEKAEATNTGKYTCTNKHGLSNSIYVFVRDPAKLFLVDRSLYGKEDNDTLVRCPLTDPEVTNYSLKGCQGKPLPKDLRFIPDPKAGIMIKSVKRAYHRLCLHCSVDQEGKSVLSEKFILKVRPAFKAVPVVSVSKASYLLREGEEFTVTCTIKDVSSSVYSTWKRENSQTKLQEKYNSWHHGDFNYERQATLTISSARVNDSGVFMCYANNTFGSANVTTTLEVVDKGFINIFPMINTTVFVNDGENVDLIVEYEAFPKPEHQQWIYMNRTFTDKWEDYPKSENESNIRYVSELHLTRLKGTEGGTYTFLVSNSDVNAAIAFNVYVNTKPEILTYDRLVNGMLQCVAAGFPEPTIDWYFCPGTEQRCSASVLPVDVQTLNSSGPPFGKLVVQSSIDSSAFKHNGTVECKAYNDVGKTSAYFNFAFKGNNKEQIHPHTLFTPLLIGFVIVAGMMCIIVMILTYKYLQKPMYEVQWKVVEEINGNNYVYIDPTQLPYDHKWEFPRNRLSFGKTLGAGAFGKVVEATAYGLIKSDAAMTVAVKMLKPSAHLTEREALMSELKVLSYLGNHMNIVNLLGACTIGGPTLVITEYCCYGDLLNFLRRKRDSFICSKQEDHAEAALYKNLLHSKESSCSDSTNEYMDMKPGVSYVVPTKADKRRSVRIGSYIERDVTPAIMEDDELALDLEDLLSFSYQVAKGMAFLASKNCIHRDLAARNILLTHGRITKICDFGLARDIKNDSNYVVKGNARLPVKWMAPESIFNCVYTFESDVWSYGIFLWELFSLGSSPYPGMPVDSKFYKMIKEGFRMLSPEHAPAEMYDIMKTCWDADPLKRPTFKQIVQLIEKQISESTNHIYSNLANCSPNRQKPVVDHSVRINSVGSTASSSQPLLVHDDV

`CN1CCN(c2ccc3nc(-c4cc(-c5ccc(NC(=O)Nc6ccc(C(F)(F)F)cc6)cc5)[nH]n4)[nH]c3c2)CC1` [Entry 13, N-(4-{3-[6-(4-methylpiperazin-1-yl)-1H-benzimidazol-2-yl]-1H-pyrazol-5-yl}phenyl)-N′-[4-(trifluoromethyl)phenyl]urea]: the IC50 against flt-3 and against c-Kit was under 0.05 µM throughout.

On to `Cc1ccc(NC(=O)Nc2ccc(-c3cc(-c4ccc(N5CCN(C)CC5)cc4)[nH]n3)cc2)cc1C` [Entry 17, N-(3,4-dimethylphenyl)-N′-(4-{5-[4-(4-methylpiperazin-1-yl)phenyl]-1H-pyrazol-3-yl}phenyl)urea], for which the IC50 at flt-3 and against c-Kit was under 0.05 µM in each case.

For `CN1CCN(c2ccc3nc(-c4cc(-c5ccc(NC(=O)Nc6cccc(C#N)c6)cc5)[nH]n4)[nH]c3c2)CC1` [Entry 24, N-(3-cyanophenyl)-N′-(4-{3-[6-(4-methylpiperazin-1-yl)-1H-benzimidazol-2-yl]-1H-pyrazol-5-yl}phenyl)urea], the IC50 against flt-3 and against c-Kit was under 0.05 µM throughout.

As for `COc1ccc(NC(=O)Nc2ccc(-c3cc(-c4nc5cc(N6CCN(C)CC6)ccc5[nH]4)n[nH]3)cc2)cc1OC` [Entry 26, N-[3,4-bis(methyloxy)phenyl]-N′-(4-{3-[5-(4-methylpiperazin-1-yl)-1H-benzimidazol-2-yl]-1H-pyrazol-5-yl}phenyl)urea], the IC50 at flt-3 and on c-Kit was under 0.05 µM throughout.

Turning to `COc1ccc(Cl)cc1NC(=O)Nc1ccc(-c2cc(-c3ccc(N4CCN(C)CC4)cc3)[nH]n2)cc1` [Entry 27, N-[5-chloro-2-(methyloxy)phenyl]-N′-(4-{5-[4-(4-methylpiperazin-1-yl)phenyl]-1H-pyrazol-3-yl}phenyl)urea], the half-inhibitory concentration (IC50) on flt-3 and against c-Kit was under 0.05 µM throughout.

With `CN1CCN(c2ccc(-c3cc(-c4ccc(NC(=O)Nc5ccc(Oc6ccccc6)cc5)cc4)n[nH]3)cc2)CC1` [Entry 28, N-(4-{5-[4-(4-methylpiperazin-1-yl)phenyl]-1H-pyrazol-3-yl}phenyl)-N′-[4-(phenyloxy)phenyl]urea], the half-inhibitory concentration (IC50) at flt-3 and on c-Kit was under 0.05 µM each time.

With `Cc1ccc(F)cc1NC(=O)Nc1ccc(-c2cc(-c3nc4ccc(N5CCN(C)CC5)cc4[nH]3)n[nH]2)cc1` [Entry 38, N-(5-fluoro-2-methylphenyl)-N′-(4-{3-[6-(4-methylpiperazin-1-yl)-1H-benzimidazol-2-yl]-1H-pyrazol-5-yl}phenyl)urea], the IC50 on flt-3 and against c-Kit was under 0.05 µM each time.

In the case of `CN1CCN(c2cccc(-c3cc(-c4ccc(NC(=O)Nc5ccc(Cl)c(C(F)(F)F)c5)cc4)[nH]n3)c2)CC1` [Entry 40, N-[4-chloro-3-(trifluoromethyl)phenyl]-N′-(4-{3-[3-(4-methylpiperazin-1-yl)phenyl]-1H-pyrazol-5-yl}phenyl)urea], the IC50 against flt-3 is under 0.05 µM; on c-Kit, 0.05 to 0.5 µM.

On to `COc1ccc(NC(=O)Nc2ccc(-c3cc(-c4ccc(N5CCN(C)CC5)cc4)[nH]n3)cc2)c(OC)c1` [Entry 43, N-[2,4-bis(methyloxy)phenyl]-N′-(4-{5-[4-(4-methylpiperazin-1-yl)phenyl]-1H-pyrazol-3-yl}phenyl)urea], for which the half-maximal inhibitory concentration (IC50) against flt-3 is under 0.05 µM; against c-Kit, 0.05 to 0.5 µM.

As to `CC(C)(C)OC(=O)Nc1ccc(-c2cc(-c3nc4ccccc4[nH]3)n[nH]2)cc1` [Entry 52, 1,1-dimethylethyl{4-[3-(1H-benzimidazol-2-yl)-1H-pyrazol-5-yl]phenyl}carbamate], the IC50 was 0.5 to 5 µM against flt-3 and 0.05 to 0.5 µM at c-Kit.

As for `Oc1ccc(/C=C/c2cc(-c3ccccn3)[nH]n2)cc1` [Entry 62, 4-[(E)-2-(5-pyridin-2-yl-1H-pyrazol-3-yl)ethenyl]phenol], the IC50 against flt-3 lay in the range of 0.05 to 0.5 µM; on c-Kit, 0.5 to 5 µM.

With `Oc1ccc(/C=C/c2cc(-c3cc4cc(Cl)ccc4o3)n[nH]2)cc1` [Entry 63, 4-{(E)-2-[3-(5-chloro-1-benzofuran-2-yl)-1H-pyrazol-5-yl]ethenyl}phenol], the figures for the IC50 at flt-3 and at c-Kit were 0.05 to 0.5 µM and 0.5 to 5 µM, respectively.

Turning to `CCN1CCN(c2ccc3[nH]c(-c4cc(-c5ccc(NC(=O)NC(C)(C)C)cc5)[nH]n4)nc3c2)CC1` [Entry 64, N-(1,1-dimethylethyl)-N′-(4-{3-[5-(4-ethylpiperazin-1-yl)-1H-benzimidazol-2-yl]-1H-pyrazol-5-yl}phenyl)urea], the IC50 against flt-3 and on c-Kit was 0.5 to 5 µM in each case.

For `Oc1ccc(/C=C/c2cc(-c3ccncc3)n[nH]2)cc1` [Entry 65, 4-[(E)-2-(3-pyridin-4-yl-1H-pyrazol-5-yl)ethenyl]phenol], the half-inhibitory concentration (IC50) against flt-3 was 0.05 to 0.5 µM; on c-Kit, 0.5 to 5 µM.

For the compound `Oc1ccc(/C=C/c2cc(-c3cccc(Cl)c3)n[nH]2)cc1` [Entry 66, 4-{(E)-2-[3-(3-chlorophenyl)-1H-pyrazol-5-yl]ethenyl}phenol], the IC50 against flt-3 and at c-Kit was 0.5 to 5 µM throughout.

Turning to `COc1ccccc1-c1cc(/C=C/c2ccc(O)cc2)n[nH]1` [Entry 67, 4-((E)-2-{5-[2-(methyloxy)phenyl]-1H-pyrazol-3-yl}ethenyl)phenol], the IC50 on flt-3 and against c-Kit was 0.5 to 5 µM throughout.

For the compound `Oc1ccc(/C=C/c2cc(-c3ccccc3Cl)n[nH]2)cc1` [Entry 68, 4-{(E)-2-[3-(2-chlorophenyl)-1H-pyrazol-5-yl]ethenyl}phenol], the IC50 fell in the range of 0.05 to 0.5 µM at flt-3 and 0.5 to 5 µM on c-Kit.

As to `Oc1ccc(/C=C/c2cc(-c3cccnc3)n[nH]2)cc1` [Entry 69, 4-[(E)-2-(3-pyridin-3-yl-1H-pyrazol-5-yl)ethenyl]phenol], the values for the IC50 against flt-3 and against c-Kit were 0.05 to 0.5 µM and 0.5 to 5 µM, respectively.

On to `COc1cccc(-c2cc(/C=C/c3ccc(O)cc3)n[nH]2)c1` [Entry 70, 4-((E)-2-{5-[3-(methyloxy)phenyl]-1H-pyrazol-3-yl}ethenyl)phenol], for which the IC50 on flt-3 and against c-Kit was 0.5 to 5 µM throughout.

For `CC(C)(C)OC(=O)Nc1ccc(-c2cc(/C=C/c3ccccc3)n[nH]2)cc1` [Entry 71, 1,1-dimethylethyl(4-{3-[(E)-2-phenylethenyl]-1H-pyrazol-5-yl}phenyl)carbamate], the IC50 at flt-3 and on c-Kit was 0.5 to 5 µM throughout.

Consider `Oc1ccc(/C=C/c2cc(-c3ccc(Cl)c(Cl)c3)n[nH]2)cc1` [Entry 72, 4-{(E)-2-[3-(3,4-dichlorophenyl)-1H-pyrazol-5-yl]ethenyl}phenol], for which the half-inhibitory concentration (IC50) at flt-3 and against c-Kit was 0.5 to 5 µM throughout.

Regarding `Oc1ccc2cc(-c3cc(/C=C/c4ccccc4)[nH]n3)oc2c1` [Entry 73, 2-{5-[(E)-2-phenylethenyl]-1H-pyrazol-3-yl}-1-benzofuran-6-ol], the IC50 against flt-3 is under 0.05 µM; against c-Kit it was 0.5 to 5 µM.

Turning to `Oc1ccc(/C=C/c2cc(-c3cccc(F)c3)[nH]n2)cc1` [Entry 74, 4-{(E)-2-[5-(3-fluorophenyl)-1H-pyrazol-3-yl]ethenyl}phenol], the IC50 against flt-3 was in the range of 0.05 to 0.5 µM; against c-Kit it was 0.5 to 5 µM.

In general, IC50 refers to the concentration at which inhibition is half-maximal.
